In one test the target is T1, MIF (Homo sapiens, UniProt P14174).
T1 sequence (P14174 2-115 limits assumed): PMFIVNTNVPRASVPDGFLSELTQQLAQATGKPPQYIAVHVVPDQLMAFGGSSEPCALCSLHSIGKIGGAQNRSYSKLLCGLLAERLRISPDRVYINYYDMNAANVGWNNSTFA
The experiment in a line: MIF tautomerase assay using pHPP as substrate. As to conditions: inhibition of the MIF enzyme in vitro; mean of multiple test results. It counts as biochemical. On the procedure:
Tautomerase Assay Using pHPP as Substrate
This assay measured MIF's tautomerase activity in a cell-free system and was based on the determination of initial rates of the MIF-catalyzed conversion of the ketonic into the enolic tautomer of pHPP. This was achieved by spectrophotometric quantification of the complex between borate and the product of the reaction (enolic pHPP). The substrate was prepared by conversion of the enolic pHPP into its ketonic form. To achieve this, 0.5 M pHPP in methanol was diluted 10-fold with 50 mM sodium acetate buffer at pH 6.0, and then the suspension was shaken for 24 h at room temperature in darkness, and finally stored at 4° C. for not more than 1 week, with 5 min sonication being recommended before use.
Assays were performed in small-volume clear-bottom black 96 or 384-well polystyrene plates (Greiner Bio-One). First, 2 μL of the enzyme solution containing 6 nM of MIF in DPBS, 0.025% w/v BSA, and 300 μM CHAPS was dispensed onto sample and negative control wells using Multidrop Combi with metallic tip cassettes (Thermo Fisher Scientific) previously treated with Sigmacote. Then, 2 μL of the same buffer without MIF was dispensed onto positive control wells. The reaction was started by addition of the following to all wells: 2 μL of substrate solution containing 3 mM ketonic pHPP in 200 mM boric acid, 25 mM sodium phosphate, 0.025% w/v BSA, and 300 μM CHAPS at pH 6.0. In order to remove bubbles, the plate was centrifuged in an Allegra 25R centrifuge (Beckman Coulter, Inc., Brea, Calif.) at 1000 rpm for 2 min at room temperature. Then, the plate was read in an EnVision. Final concentrations of enzyme and substrate were 3 nM and 1.5 mM, respectively. Initial rates were calculated for each well as the slope of the absorbance progress curve.
All exemplified compounds (Examples 1-230) were tested in the MIF tautomerase assay or a similar assay described above. The data mentioned below represents a mean pIC50 value of multiple test results. It is understood that the data illustrated below may have reasonable variation depending on the specific conditions and procedures used by the person conducting the testing.
For the compound “4-(4-(7-(2-hydroxyethyl)-4-(indolin-1-yl)-7H-pyrrolo[2,3-d]pyrimidin-2-yl)piperazin-1-yl)phenol [Example 1]”, the “Tautomerase Inhibition pIC50” value is “B (B means 5.01 to 6)”.

The test is the same for the next values; noted with them: inhibition of the MIF enzyme in vitro; mean of multiple test results; read-out: Tautomerase Inhibition pIC50 (converted).
For the compound `Nc1nc(N2CCN(c3ccc(O)cc3)CC2)nc2c1ncn2C1CCCC(C(=O)O)C1` (mixture of isomers) [Example 189, 3-(6-amino-2-(4-(4-hydroxyphenyl)piperazin-1-yl)-9H-purin-9-yl)cyclohexane-1-carboxylic acid], the IC50 was more than 10000 nM.

For `O=C1Cc2ccccc2N1c1nc(N2CCN(c3ccc(O)cc3)CC2)nc2c1ncn2CCO` [Example 2, 1-(9-(2-hydroxyethyl)-2-(4-(4-hydroxyphenyl)piperazin-1-yl)-9H-purin-6-yl)indolin-2-one], the IC50 was 100 to 977 nM.

`OCCn1cnc2c(-n3ncc4ccccc43)nc(N3CCN(c4ccc(O)cc4)CC3)nc21` [Example 3, 4-(4-(9-(2-hydroxyethyl)-6-(1H-indazol-1-yl)-9H-purin-2-yl)piperazin-1-yl)phenol]: the IC50 is 100 to 977 nM.

On to `C[C@H](Nc1nc(N2CCN(c3ccc(O)cc3)CC2)nc2c1ncn2CCO)c1ccccc1` [Example 4, (S)-4-(4-(9-(2-hydroxyethyl)-6-((1-phenylethyl)amino)-9H-purin-2-yl)piperazin-1-yl)phenol], for which the IC50 was more than 10000 nM.

For `OCCn1cnc2c(N[C@@H](CO)Cc3ccccc3)nc(N3CCN(c4ccc(O)cc4)CC3)nc21` [Example 5, (R)-4-(4-(6-((1-hydroxy-3-phenylpropan-2-yl)amino)-9-(2-hydroxyethyl)-9H-purin-2-yl)piperazin-1-yl)phenol], the IC50 was more than 10000 nM.

With `OCCn1cnc2c(N[C@@H]3CCc4ccccc43)nc(N3CCN(c4ccc(O)cc4)CC3)nc21` [Example 6, (R)-4-(4-(6-((2,3-dihydro-1H-inden-1-yl)amino)-9-(2-hydroxyethyl)-9H-purin-2-yl)piperazin-1-yl)phenol], the IC50 was more than 10000 nM.

On to `OCCCn1cnc2c(N3CCc4ccccc43)nc(N3CCN(c4ccc(O)cc4)CC3)nc21` [Example 7, 4-(4-(9-(3-hydroxypropyl)-6-(indolin-1-yl)-9H-purin-2-yl)piperazin-1-yl)phenol], for which the IC50 was 1000 to 9770 nM.

As for `O=C(O)CCn1cnc2c(N3CCc4ccccc43)nc(N3CCN(c4ccc(O)cc4)CC3)nc21` [Example 8, 3-(2-(4-(4-hydroxyphenyl)piperazin-1-yl)-6-(indolin-1-yl)-9H-purin-9-yl)propanoic acid], the IC50 is 100 to 977 nM.

Consider `OCCn1cnc2c(-n3cnc4ccccc43)nc(N3CCN(c4ccc(O)cc4)CC3)nc21` [Example 9, 4-(4-(6-(1H-benzo[d]imidazol-1-yl)-9-(2-hydroxyethyl)-9H-purin-2-yl)piperazin-1-yl)phenol], for which the IC50 is 100 to 977 nM.

In the case of `O=C(O)Cn1cnc2c(-n3nc(C(=O)O)c4ccccc43)nc(N3CCN(c4ccc(O)cc4)CC3)nc21` [Example 10, 1-(9-(carboxymethyl)-2-(4-(4-hydroxyphenyl)piperazin-1-yl)-9H-purin-6-yl)-1H-indazole-3-carboxylic acid], the IC50 is 10 to 97.7 nM.

`O=C(O)Cn1cnc2c(-n3nc(CO)c4ccccc43)nc(N3CCN(c4ccc(O)cc4)CC3)nc21` [Example 11, 2-(6-(3-(hydroxymethyl)-1H-indazol-1-yl)-2-(4-(4-hydroxyphenyl)piperazin-1-yl)-9H-purin-9-yl)acetic acid]: the IC50 is 10 to 97.7 nM.

For the compound `Oc1ccc(N2CCN(c3nc(-n4ncc5ccccc54)c4ncn(-c5cccnc5)c4n3)CC2)cc1` [Example 12, 4-(4-(6-(1H-indazol-1-yl)-9-(pyridin-3-yl)-9H-purin-2-yl)piperazin-1-yl)phenol], the IC50 was 100 to 977 nM.

Take `Oc1ccc(N2CCN(c3cc(-n4ncc5ccccc54)n4ncc(Br)c4n3)CC2)cc1` [Example 13, 4-(4-(3-bromo-7-(1H-indazol-1-yl)pyrazolo[1,5-a]pyrimidin-5-yl)piperazin-1-yl)phenol]: the IC50 is more than 10000 nM.

Turning to `Oc1ccc(N2CCN(c3cc(-n4ncc5ccccc54)n4ncc(-c5cccnc5)c4n3)CC2)cc1` [Example 14, 4-(4-(7-(1H-indazol-1-yl)-3-(pyridin-3-yl)pyrazolo[1,5-a]pyrimidin-5-yl)piperazin-1-yl)phenol], the IC50 was 1000 to 9770 nM.

For `C[C@H]1CN(c2ccc(O)cc2)CCN1c1nc(-n2ncc3ccccc32)c2ncn(CC(=O)O)c2n1` [Example 15, (S)-2-(2-(4-(4-hydroxyphenyl)-2-methylpiperazin-1-yl)-6-(1H-indazol-1-yl)-9H-purin-9-yl)acetic acid], the IC50 is 1000 to 9770 nM.

For `O=C(O)Cn1cnc2c(-n3ncc4c(CO)cccc43)nc(N3CCN(c4ccc(O)cc4)CC3)nc21` [Example 16, 2-(6-(4-(hydroxymethyl)-1H-indazol-1-yl)-2-(4-(4-hydroxyphenyl)piperazin-1-yl)-9H-purin-9-yl)acetic acid], the IC50 was 10 to 97.7 nM.

Turning to `Oc1ccc(N2CCN(c3nc(-n4ncc5ccccc54)c4ncn(Cc5nnn[nH]5)c4n3)CC2)cc1` [Example 17, 4-(4-(9-((1H-tetrazol-5-yl)methyl)-6-(1H-indazol-1-yl)-9H-purin-2-yl)piperazin-1-yl)phenol], the IC50 is 100 to 977 nM.

Turning to `O=C(O)Cn1cnc2c(-n3nnc4ccc(Cl)cc43)nc(N3CCN(c4ccc(O)cc4)CC3)nc21` [Example 18, 2-(6-(6-chloro-1H-benzo[d][1,2,3]triazol-1-yl)-2-(4-(4-hydroxyphenyl)piperazin-1-yl)-9H-purin-9-yl)acetic acid], the IC50 was 10 to 97.7 nM.

`O=C(O)Cn1cnc2c(-n3nnc4cc(Cl)ccc43)nc(N3CCN(c4ccc(O)cc4)CC3)nc21` [Example 19, 2-(6-(5-chloro-1H-benzo[d][1,2,3]triazol-1-yl)-2-(4-(4-hydroxyphenyl)piperazin-1-yl)-9H-purin-9-yl)acetic acid]: the IC50 is 1000 to 9770 nM.

Take `Cc1cccc2c1nnn2-c1nc(N2CCN(c3ccc(O)cc3)CC2)nc2c1ncn2CC(=O)O` [Example 20, 2-(2-(4-(4-hydroxyphenyl)piperazin-1-yl)-6-(4-methyl-1H-benzo[d][1,2,3]triazol-1-yl)-9H-purin-9-yl)acetic acid]: the IC50 is 10 to 97.7 nM.

As for `O=C(O)Cn1cnc2c(-n3ncc4ccccc43)nc(N3CCN(c4ccc(O)cn4)CC3)nc21` [Example 21, 2-(2-(4-(5-hydroxypyridin-2-yl)piperazin-1-yl)-6-(1H-indazol-1-yl)-9H-purin-9-yl)acetic acid], the IC50 is 10 to 97.7 nM.

As for `O=C(O)Cn1cnc2nc(N3CCN(c4ccc(O)cn4)CC3)nc(-n3ncc4ccccc43)c21` [Example 22, 2-(2-(4-(5-hydroxypyridin-2-yl)piperazin-1-yl)-6-(1H-indazol-1-yl)-7H-purin-7-yl)acetic acid], the IC50 was 1000 to 9770 nM.

As for `OCCCn1cnc2c(-n3ncc4ccccc43)nc(N3CCN(c4ccc(O)cc4)CC3)nc21` [Example 23, 4-(4-(9-(3-hydroxypropyl)-6-(1H-indazol-1-yl)-9H-purin-2-yl)piperazin-1-yl)phenol], the IC50 was 100 to 977 nM.

Regarding `O=C(O)Cn1cnc2c(-n3nnc4ccccc43)nc(N3CCN(c4ccc(O)cc4)CC3)nc21` [Example 24, 2-(6-(1H-benzo[d][1,2,3]triazol-1-yl)-2-(4-(4-hydroxyphenyl)piperazin-1-yl)-9H-purin-9-yl)acetic acid], the IC50 was 10 to 97.7 nM.

As for `O=C(O)Cn1cnc2c(-c3c[nH]c4ccccc34)nc(N3CCN(c4ccc(O)cc4)CC3)nc21` [Example 25, 2-(2-(4-(4-hydroxyphenyl)piperazin-1-yl)-6-(1H-indol-3-yl)-9H-purin-9-yl)acetic acid], the IC50 is 1000 to 9770 nM.

Take `O=C(O)Cn1cnc2c(N3Cc4ccccc4C3)nc(N3CCN(c4ccc(O)cc4)CC3)nc21` [Example 26, 2-(2-(4-(4-hydroxyphenyl)piperazin-1-yl)-6-(isoindolin-2-yl)-9H-purin-9-yl)acetic acid]: the IC50 is 100 to 977 nM.

For the compound `O=C(O)Cn1cnc2c(N3Cc4ccccc4C3=O)nc(N3Cc4ccccc4C3=O)nc21` [Example 27, 2-(2,6-bis(1-oxoisoindolin-2-yl)-9H-purin-9-yl)acetic acid], the IC50 was more than 10000 nM.

As to `Cc1nc2ccccc2n1-c1nc(N2CCN(c3ccc(O)cc3)CC2)nc2c1ncn2CC(=O)O` [Example 28, 2-(2-(4-(4-hydroxyphenyl)piperazin-1-yl)-6-(2-methyl-1H-benzo[d]imidazol-1-yl)-9H-purin-9-yl)acetic acid], the IC50 was 1000 to 9770 nM.

For the compound `O=C(O)Cn1cnc2c(-n3c(CO)nc4ccccc43)nc(N3CCN(c4ccc(O)cc4)CC3)nc21` [Example 29, 2-(6-(2-(hydroxymethyl)-1H-benzo[d]imidazol-1-yl)-2-(4-(4-hydroxyphenyl)piperazin-1-yl)-9H-purin-9-yl)acetic acid], the IC50 is more than 10000 nM.

For the origin of these results see patent publication US20220144838A1, “Compounds as Inhibitors of Macrophage Migration Inhibitory Factor” (NANJING IMMUNOPHAGE BIOTECH CO., LTD., priority 2019, published 2022).
